Experimental data taken from ChEMBL document CHEMBL5154739, “Structure-activity relationships of N-terminal variants of peptidomimetic tissue transglutaminase inhibitors” (Eur J Med Chem, 2022).
Calls of active or inactive are those of the source. The rule behind the calls is not given here.

Experiments:
[1] = biological target: T1, Protein-glutamine gamma-glutamyltransferase (Homo sapiens) (UniProt P21980); assay: (§1) Inhibition of TG2 (unknown origin) using Cbz-Glu(gamma-p-nitrophenyl ester)Gly (AL5) as substrate and measured by colorimetric assay
T1 sequence (whole entry): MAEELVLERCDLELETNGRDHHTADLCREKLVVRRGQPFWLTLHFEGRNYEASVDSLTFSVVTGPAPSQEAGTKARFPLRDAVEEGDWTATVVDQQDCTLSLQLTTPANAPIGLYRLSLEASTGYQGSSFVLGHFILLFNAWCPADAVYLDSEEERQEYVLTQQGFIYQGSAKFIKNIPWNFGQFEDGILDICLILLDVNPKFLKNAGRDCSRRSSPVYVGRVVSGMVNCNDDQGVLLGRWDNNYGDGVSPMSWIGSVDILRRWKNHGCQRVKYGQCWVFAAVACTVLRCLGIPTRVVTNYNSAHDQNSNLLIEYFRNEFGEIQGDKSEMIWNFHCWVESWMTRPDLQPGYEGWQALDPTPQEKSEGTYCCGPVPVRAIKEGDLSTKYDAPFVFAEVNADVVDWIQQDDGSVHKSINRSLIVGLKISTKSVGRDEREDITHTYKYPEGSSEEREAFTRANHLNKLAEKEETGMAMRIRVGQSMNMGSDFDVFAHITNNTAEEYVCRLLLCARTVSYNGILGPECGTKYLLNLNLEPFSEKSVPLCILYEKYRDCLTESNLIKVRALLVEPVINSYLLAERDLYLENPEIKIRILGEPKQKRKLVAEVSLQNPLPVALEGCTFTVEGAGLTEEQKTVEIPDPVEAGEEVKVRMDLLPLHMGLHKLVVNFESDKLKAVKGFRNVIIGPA

[2] = biological target: T1, Protein-glutamine gamma-glutamyltransferase (Homo sapiens); assay: Inhibition of TG2 (unknown origin) using Cbz-Glu(gamma-p-nitrophenyl ester)Gly (AL5) as substrate assessed as Kinact/Ki ratio and measured by colorimetric assay
[3] = biological target: T2, Protein-glutamine gamma-glutamyltransferase (Homo sapiens, UniProt P21980); assay: as §1
T2 sequence (P21980 whole entry): T1 sequence (whole entry)

[4] = Anti-invasion activity against human SCC-13 cells assessed as inhibition of invasion incubated for 18 hrs by matrigel trans well plate assay; format: functional, cell-based; details: SCC-13, 18 h
[5] = test system: P-gp; assay: Substrate activity at P-gp in dog MDCK cells assessed as apparent permeability across basolateral to apical membrane; format: ADME, cell-based, Canis lupus familiaris; details: MDCK-MDR1
[6] = test system: MDR1 (P-gp); assay: Apparent permeability from apical to basolateral side in dog MDCK-MDR1 cells; format: ADME, cell-based, Canis lupus familiaris
[7] = test system: P-gp; assay: Substrate activity at P-gp in dog MDCK cells assessed as efflux ratio; format: ADME, cell-based, Canis lupus familiaris; details: MDCK-MDR1
[8] = test system: MDR1 (P-gp); assay: Efflux ratio of apparent permeability in dog MDCK-MDR1 cells; format: ADME, cell-based, Canis lupus familiaris
[9] = test system: MDR1 (P-gp); assay: Apparent permeability from basolateral to apical side in dog MDCK-MDR1 cells; format: ADME, cell-based, Canis lupus familiaris
[10] = test system: P-gp; assay: Substrate activity at P-gp in dog MDCK cells assessed as apparent permeability across apical to basolateral membrane; format: ADME, cell-based, Canis lupus familiaris; details: MDCK-MDR1
[11] = Plasma protein binding (unknown origin); format: ADME, cell-free; details: read-out: PPB (converted)
[12] = Half-life in plasma (unknown origin); format: ADME, cell-free
[13] = Plasma protein binding (unknown origin) assessed as drug recovery; format: ADME, cell-free; details: read-out: Drug recovery
[14] = biological target: T1, Protein-glutamine gamma-glutamyltransferase (Homo sapiens); assay: Inhibition of GTP binding to TG2 (unknown origin) measured by GTP Gamma-S-FL BODIPY assay

SMILES	Kinact [1] [min⁻¹]	Ratio [2]	further results
C=CC(=O)NCCCC[C@H](NC(=O)C1CCCCC1)C(=O)N1CCN(C(=O)c2cccc3ccccc23)CC1	0.33	33.6 10^3/M/min	
C=CC(=O)NCCCC[C@H](NC(=O)CC1CCCCC1)C(=O)N1CCN(C(=O)c2cccc3ccccc23)CC1	0.26	20.9 10^3/M/min	
C=CC(=O)NCCCC[C@H](NS(=O)(=O)Cc1ccccc1)C(=O)N1CCN(C(=O)c2cccc3ccccc23)CC1	0.53	11.4 10^3/M/min	
C=CC(=O)NCCCC[C@H](NS(C)(=O)=O)C(=O)N1CCN(C(=O)c2cccc3ccccc23)CC1	0.57	22.6 10^3/M/min	Ki [3]: 253 µM
C=CC(=O)NCCCC[C@H](NS(=O)(=O)c1ccccc1)C(=O)N1CCN(C(=O)c2cccc3ccccc23)CC1	0.63	7.1 10^3/M/min	
C=CC(=O)NCCCC[C@H](NC(=O)OCc1ccccc1)C(=O)N1CCN(C(=O)c2cccc3ccccc23)CC1	1.2	244 10^3/M/min	Ki [3]: 4.8 µM
C=CC(=O)NCCCC[C@H](NC(=O)OCc1ccccc1)C(=O)NCCOCCOCCNS(=O)(=O)c1cccc2c(N(C)C)cccc12	0.41	14 10^3/M/min	Ki [3]: 29 µM; EC50 [4]: 20 µM
C=CC(=O)NCCCC[C@H](NC(=O)Cc1ccccc1)C(=O)N1CCN(c2ccc([N+](=O)[O-])nc2)CC1		508 10^3/M/min	
C=CC(=O)NCC(=O)N1CCN(S(=O)(=O)c2cccc3c(N(C)C)cccc23)CC1	0.387		Ki [3]: 1.31 µM
C=CC(=O)NCCCC[C@H](NC(=O)C(C)C)C(=O)N1CCN(C(=O)c2cccc3ccccc23)CC1	0.65	65.1 10^3/M/min	
C=CC(=O)NCCCC[C@H](NC(=O)C(C)(C)C)C(=O)N1CCN(C(=O)c2cccc3ccccc23)CC1	0.49	56.2 10^3/M/min	
C=CC(=O)NCCCC[C@H](NC(=O)c1cncn1C)C(=O)N1CCN(C(=O)c2cccc3ccccc23)CC1	0.28	12.6 10^3/M/min	Ki [3]: 22.3 µM
C=CC(=O)NCCCC[C@H](NC(=O)Cc1ccccc1F)C(=O)N1CCN(C(=O)c2cccc3ccccc23)CC1	0.46	443 10^3/M/min	Papp B→A [5]: 2.8 ×10⁻⁶ cm/s; Papp A→B [6]: 0.29 ×10⁻⁶ cm/s; efflux ratio [7]: 1.3; efflux ratio [8]: 61.7; Papp B→A [9]: 18.2 ×10⁻⁶ cm/s; Papp A→B [10]: 2.2 ×10⁻⁶ cm/s; EC50 [4]: 77 µM; fraction unbound [11]: 0.16; half-life [12]: 17.9 h; recovery [13]: 86%; inhibition [14]: Active
C=CC(=O)NCCCC[C@H](NC(=O)OCc1ccccc1)C(=O)N1CCN(S(=O)(=O)c2cccc3c(N(C)C)cccc23)CC1	0.38	100 10^3/M/min	Ki [3]: 3.8 µM; EC50 [4]: 3.9 µM
C=CC(=O)NCCCC[C@H](NC(=O)c1nccn1C)C(=O)N1CCN(C(=O)c2cccc3ccccc23)CC1	0.18	11.5 10^3/M/min	
C=CC(=O)NCCCC[C@H](NC(=O)C1CC1)C(=O)N1CCN(C(=O)c2cccc3ccccc23)CC1	1.02	96.6 10^3/M/min	
C=CC(=O)NCCCC[C@H](NS(=O)(=O)CC)C(=O)N1CCN(C(=O)c2cccc3ccccc23)CC1	0.83	31.1 10^3/M/min	
C=CC(=O)NCCCC[C@H](NC(=O)c1ccc2ccccc2c1)C(=O)N1CCN(C(=O)c2cccc3ccccc23)CC1	0.29	36.5 10^3/M/min	
C=CC(=O)NCCCC[C@H](NC(=O)C1C2CC3CC(C2)CC1C3)C(=O)N1CCN(C(=O)c2cccc3ccccc23)CC1 (stereo partly specified)	0.23	14.9 10^3/M/min	
C=CC(=O)NCCCC[C@H](NC(=O)c1cccc2ccccc12)C(=O)N1CCN(C(=O)c2cccc3ccccc23)CC1	0.41	20.1 10^3/M/min	
C=CC(=O)NCCCC[C@H](NC(=O)Cc1ccccc1)C(=O)N1CCN(c2cccnc2)CC1		391 10^3/M/min	
C=CC(=O)NCCCC[C@H](NC(=O)c1cn(C)cn1)C(=O)N1CCN(C(=O)c2cccc3ccccc23)CC1	0.46	16 10^3/M/min	Ki [3]: 28.7 µM

More lines, main results first:

Kinact [1] [min⁻¹]	Ratio [2]	SMILES	further results
0.3	290 10^3/M/min	C=CC(=O)NCCCC[C@H](NC(=O)Cc1cccc(Cl)c1)C(=O)N1CCN(C(=O)c2cccc3ccccc23)CC1	
0.64	47.8 10^3/M/min	C=CC(=O)NCCCC[C@H](NC(=O)c1cccc(F)c1)C(=O)N1CCN(C(=O)c2cccc3ccccc23)CC1	
0.59	23.3 10^3/M/min	C=CC(=O)NCCCC[C@H](NC(=O)c1cccnc1)C(=O)N1CCN(C(=O)c2cccc3ccccc23)CC1	
5.3	295 10^3/M/min	C=CC(=O)NCCCC[C@H](NC(=O)Cc1ccccc1Cl)C(=O)N1CCN(C(=O)c2cccc3ccccc23)CC1	EC50 [4]: 92 µM
0.6	214 10^3/M/min	C=CC(=O)NCCCC[C@H](NC(=O)CCc1ccccc1)C(=O)N1CCN(C(=O)c2cccc3ccccc23)CC1	
0.64	66.7 10^3/M/min	C=CC(=O)NCCCC[C@H](NC(=O)CC(C)C)C(=O)N1CCN(C(=O)c2cccc3ccccc23)CC1	
0.75	155 10^3/M/min	C=CC(=O)NCCCC[C@H](NC(=O)Cc1cccc(F)c1)C(=O)N1CCN(C(=O)c2cccc3ccccc23)CC1	
0.9	55.4 10^3/M/min	C=CC(=O)NCCCC[C@H](NC(=O)c1ccc(F)cc1)C(=O)N1CCN(C(=O)c2cccc3ccccc23)CC1	
0.53	103 10^3/M/min	C=CC(=O)NCCCC[C@H](NC(=O)CC)C(=O)N1CCN(C(=O)c2cccc3ccccc23)CC1	
0.21	39.6 10^3/M/min	C=CC(=O)NCCCC[C@H](NC(=O)CCCc1ccccc1)C(=O)N1CCN(C(=O)c2cccc3ccccc23)CC1	
0.46	170 10^3/M/min	C=CC(=O)NCCCC[C@H](NC(=O)Cc1cccc(Cl)c1Cl)C(=O)N1CCN(C(=O)c2cccc3ccccc23)CC1	
1.45	44.1 10^3/M/min	C=CC(=O)NCCCC[C@H](NC(C)=O)C(=O)N1CCN(C(=O)c2cccc3ccccc23)CC1	
0.24	12.7 10^3/M/min	C=CC(=O)NCCCC[C@H](NC(=O)c1ccncc1)C(=O)N1CCN(C(=O)c2cccc3ccccc23)CC1	
1	100 10^3/M/min	C=CC(=O)NCCCC[C@H](NC(=O)Cc1ccccc1C(F)(F)F)C(=O)N1CCN(C(=O)c2cccc3ccccc23)CC1	
0.62	224 10^3/M/min	C=CC(=O)NCCCC[C@H](NC(=O)Cc1ccc(F)cc1F)C(=O)N1CCN(C(=O)c2cccc3ccccc23)CC1	
3.1	310 10^3/M/min	C=CC(=O)NCCCC[C@H](NC(=O)Cc1ccccc1Br)C(=O)N1CCN(C(=O)c2cccc3ccccc23)CC1	EC50 [4]: 94 µM
0.08	131 10^3/M/min	C=CC(=O)NCCCC[C@H](NC(=O)Cc1ccc(Cl)c(Cl)c1)C(=O)N1CCN(C(=O)c2cccc3ccccc23)CC1	
0.49	119 10^3/M/min	C=CC(=O)NCCCC[C@H](NC(=O)Cc1ccc(F)cc1)C(=O)N1CCN(C(=O)c2cccc3ccccc23)CC1	
1.4	299 10^3/M/min	C=CC(=O)NCCCC[C@H](NC(=O)Cc1ccccc1OC)C(=O)N1CCN(C(=O)c2cccc3ccccc23)CC1	
2.1	352 10^3/M/min	C=CC(=O)NCCCC[C@H](NC(=O)Cc1ccccc1C)C(=O)N1CCN(C(=O)c2cccc3ccccc23)CC1	Papp B→A [5]: 3 ×10⁻⁶ cm/s; Papp A→B [6]: 0.32 ×10⁻⁶ cm/s; efflux ratio [7]: 0.93; efflux ratio [8]: 51.6; Papp B→A [9]: 16.5 ×10⁻⁶ cm/s; Papp A→B [10]: 3.2 ×10⁻⁶ cm/s; fraction unbound [11]: 0.15; half-life [12]: 9.47 h; recovery [13]: 93%
0.39	39.4 10^3/M/min	C=CC(=O)NCCCC[C@H](NC(=O)c1ccccc1F)C(=O)N1CCN(C(=O)c2cccc3ccccc23)CC1	
0.39	9.6 10^3/M/min	C=CC(=O)NCCCC[C@H](NC(=O)c1ccccn1)C(=O)N1CCN(C(=O)c2cccc3ccccc23)CC1	
